Counter-ions that a name gives are not always drawn.
What follows are compounds tested against T1, recombinant guanylate cyclase reporter cell line (Rattus norvegicus, UniProt P19686+P20595) (assay: B-2. Action on recombinant guanylate cyclase reporter cell line). Conditions: MEC = minimal effective concentration; in some cases mean values from individual determinations.
T1 construct: expressed in transfected cells
T1 sequence (P20595 1-619): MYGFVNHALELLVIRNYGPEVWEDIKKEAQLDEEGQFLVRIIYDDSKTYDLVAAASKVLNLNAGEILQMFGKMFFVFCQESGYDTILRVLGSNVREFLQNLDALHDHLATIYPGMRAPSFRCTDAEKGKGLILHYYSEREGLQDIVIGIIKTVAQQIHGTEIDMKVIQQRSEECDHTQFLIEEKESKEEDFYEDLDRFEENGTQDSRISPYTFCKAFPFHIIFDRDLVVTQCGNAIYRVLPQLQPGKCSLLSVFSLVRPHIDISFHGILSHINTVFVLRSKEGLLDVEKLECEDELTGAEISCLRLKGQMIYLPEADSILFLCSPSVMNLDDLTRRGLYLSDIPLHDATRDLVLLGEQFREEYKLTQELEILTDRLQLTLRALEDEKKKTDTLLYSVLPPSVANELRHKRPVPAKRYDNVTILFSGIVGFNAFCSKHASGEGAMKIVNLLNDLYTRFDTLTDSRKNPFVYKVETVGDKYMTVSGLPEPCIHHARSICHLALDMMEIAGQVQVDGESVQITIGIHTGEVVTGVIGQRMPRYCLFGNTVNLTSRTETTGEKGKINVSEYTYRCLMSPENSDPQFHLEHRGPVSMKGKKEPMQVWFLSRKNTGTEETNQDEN
T1 sequence (P19686 1-690): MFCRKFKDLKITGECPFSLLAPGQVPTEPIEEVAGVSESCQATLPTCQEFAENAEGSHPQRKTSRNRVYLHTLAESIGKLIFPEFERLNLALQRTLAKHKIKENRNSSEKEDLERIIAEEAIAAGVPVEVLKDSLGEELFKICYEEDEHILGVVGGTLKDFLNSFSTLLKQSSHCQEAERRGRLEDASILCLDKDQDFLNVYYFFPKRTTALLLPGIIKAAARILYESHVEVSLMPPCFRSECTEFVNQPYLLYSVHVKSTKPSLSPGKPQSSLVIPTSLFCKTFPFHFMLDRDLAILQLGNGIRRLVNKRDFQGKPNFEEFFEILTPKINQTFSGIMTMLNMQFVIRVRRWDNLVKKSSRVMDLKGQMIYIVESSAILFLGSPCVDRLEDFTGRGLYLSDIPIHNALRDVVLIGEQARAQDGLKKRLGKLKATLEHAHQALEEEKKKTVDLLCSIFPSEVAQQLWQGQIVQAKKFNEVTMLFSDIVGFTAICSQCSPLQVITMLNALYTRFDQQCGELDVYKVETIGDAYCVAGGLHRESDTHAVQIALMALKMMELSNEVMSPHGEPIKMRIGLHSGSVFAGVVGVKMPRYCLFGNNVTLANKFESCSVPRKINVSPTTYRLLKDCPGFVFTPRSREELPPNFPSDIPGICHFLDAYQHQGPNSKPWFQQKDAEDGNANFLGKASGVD
Assay type: cell-based
Method: B-2. Action on Recombinant Guanylate Cyclase Reporter Cell Line
The cellular action of the compounds according to the invention is determined on a recombinant guanylate cyclase reporter cell line, as described in F. Wunder et al., Anal. Biochem. 339, 104-112 (2005).
Representative MEC values (MEC=minimal effective concentration) for the compounds according to the invention are shown in the following table (in some cases as mean values obtained from individual determinations): […]
In the case of CCCC(C)(N)CNC(=O)c1c(C)nc2c(OCc3c(F)cccc3F)cc(C)cn12 (racemic) [Example 232, rac-N-(2-Amino-2-methylpentyl)-8-[(2,6-difluorobenzyl)oxy]-2,6-dimethylimidazo[1,2-a]pyridine-3-carboxamide], the MEC was 0.10 µM.
With Cc1cc(OCc2c(F)cccc2F)c2nc(C)c(C(=O)NCC3CCc4ccccc4N3)n2c1 (racemic) [Example 235, rac-8-[(2,6-Difluorobenzyl)oxy]-2,6-dimethyl-N-(1,2,3,4-tetrahydroquinolin-2-ylmethyl)imidazo-[1,2-a]pyridine-3-carboxamide] the MEC was 0.30 µM.
In the case of Cc1nc2c(OCc3c(F)cccc3F)cc(Cl)cn2c1C(=O)NCC(C)(N)C(F)(F)F (racemic) [Example 236, rac-N-(2-Amino-3,3,3-trifluoro-2-methylpropyl)-6-chloro-8-[(2,6-difluorobenzyl)oxy]-2-methylimidazo[1,2-a]pyridine-3-carboxamide], the MEC was 0.30 µM.
Cc1cc(OCc2c(F)cccc2F)c2nc(C)c(C(=O)NCC(C)(N)C(F)(F)F)n2c1 (racemic) [Example 239, rac-N-(2-Amino-3,3,3-trifluoro-2-methylpropyl)-8-[(2,6-difluorobenzyl)oxy]-2,6-dimethyl-imidazo[1,2-a]pyridine-3-carboxamide] was tested, and the MEC was 0.30 µM.
Compound CCCC(C)(N)CNC(=O)c1c(C)nc2c(OCc3c(F)cccc3F)cc(Cl)cn12 (racemic) [Example 244, rac-N-(2-Amino-2-methylpentyl)-6-chloro-8-[(2,6-difluorobenzyl)oxy]-2-methylimidazo[1,2-a]-pyridine-3-carboxamide] has an MEC of 0.30 µM.
Work on Cc1cc(OCCC(C)C)c2nc(C)c(C(=O)NCC(C)(N)CC(C)C)n2c1 (racemic) [Example 249, rac-N-(2-Amino-2,4-dimethylpentyl)-2,6-dimethyl-8-(3-methylbutoxy)imidazo[1,2-a]pyridine-3-carboxamide] yielded an MEC of 1.00 µM.
Cc1nc2c(OCc3c(F)cccc3F)cccn2c1C(=O)NCC1CCc2ccccc2N1 (racemic) [Example 250, rac-8-[(2,6-Difluorobenzyl)oxy]-2-methyl-N-(1,2,3,4-tetrahydroquinolin-2-ylmethyl)imidazo[1,2-a]pyridine-3-carboxamide] gave an MEC of 1.00 µM.
In the case of CCC(C)(N)CNC(=O)c1c(C)nc2c(OCc3c(F)cccc3F)cccn12 (racemic) [Example 254, rac-N-(2-Amino-2-methylbutyl)-8-[(2,6-difluorobenzyl)oxy]-2-methylimidazo[1,2-a]pyridine-3-carboxamide], the MEC was 0.30 µM.
Cc1cc(OCCC(C(F)(F)F)C(F)(F)F)c2nc(C)c(C(=O)NCC(C)(N)CC(C)C)n2c1 (racemic) [Example 258, rac-N-(2-Amino-2,4-dimethylpentyl)-2,6-dimethyl-8-[4,4,4-trifluoro-3-(trifluoromethyl)butoxy]-imidazo[1,2-a]pyridine-3-carboxamide] was tested, and the MEC was 1.00 µM.
Cc1cc(OCc2c(F)cccc2F)c2nc(C)c(C(=O)NCC(C)(N)C3CC3)n2c1 (racemic) [Example 259, rac-N-(2-Amino-2-cyclopropylpropyl)-8-[(2,6-difluorobenzyl)oxy]-2,6-dimethylimidazo[1,2-a]-pyridine-3-carboxamide] was tested, and the MEC was 0.03 µM.
In the case of Cc1cc(OCc2c(F)cccc2F)c2nc(C)c(C(=O)NCC(C)(N)CCOCc3ccccc3)n2c1 (racemic) [Example 262, rac-N-[2-Amino-4-(benzyloxy)-2-methylbutyl]-8-[(2,6-difluorobenzyl)oxy]-2,6-dimethylimidazo-[1,2-a]pyridine-3-carboxamide], the MEC was 0.10 µM.
Work on Cc1nc2c(OCc3c(F)cccc3F)cccn2c1C(=O)NCC(C)(N)COCc1ccccc1 (racemic) [Example 263, rac-N-[2-amino-3-(benzyloxy)-2-methylpropyl]-8-[(2,6-difluorobenzyl)oxy]-2-methylimidazo[1,2-a]pyridine-3-carboxamide] yielded an MEC of 1.00 µM.
For Cc1nc2c(OCc3c(F)cccc3F)cccn2c1C(=O)NCC(C)(N)CCOCc1ccccc1 (racemic) [Example 264, rac-N-[2-amino-4-(benzyloxy)-2-methylbutyl]-8-[(2,6-difluorobenzyl)oxy]-2-methylimidazo[1,2-a]pyridine-3-carboxamide], the MEC was 0.03 µM.
Work on Cc1cc(OCc2c(F)cccc2F)c2nc(C)c(C(=O)NCC(C)(N)COCc3ccccc3)n2c1 (racemic) [Example 265, rac-N-[2-amino-3-(benzyloxy)-2-methylpropyl]-8-[(2,6-difluorobenzyl)oxy]-2,6-dimethylimidazo[1,2-a]pyridine-3-carboxamide] yielded an MEC of 0.30 µM.
For Cc1cc(OCc2c(F)cccc2F)c2nc(C)c(C(=O)NCC(C)(N)CCO)n2c1 (racemic) [Example 270, rac-N-(2-Amino-4-hydroxy-2-methylbutyl)-8-[(2,6-difluorobenzyl)oxy]-2,6-dimethylimidazo[1,2-a]pyridine-3-carboxamide], the MEC was 1.00 µM.
With Cc1nc2c(OCc3c(F)cccc3F)cccn2c1C(=O)NCC(C)(N)CO (racemic) [Example 273, rac-N-(2-Amino-3-hydroxy-2-methylpropyl)-8-[(2,6-difluorobenzyl)oxy]-2-methylimidazo[1,2-a]-pyridine-3-carboxamide] the MEC was 1.00 µM.
Compound CCCC(C)(N)CNC(=O)c1c(C)nc2c(OCc3c(F)cccc3F)c(F)ccn12 (racemic) [Example 277, rac-N-(2-Amino-2-methylpentyl)-8-[(2,6-difluorobenzyl)oxy]-7-fluoro-2-methylimidazo[1,2-a]-pyridine-3-carboxamide] has an MEC of 1.00 µM.
Work on Cc1cc(OCc2c(F)cccc2F)c2nc(C)c(C(=O)NCC(C)(N)CF)n2c1 (racemic) [Example 282, rac-N-(2-amino-3-fluoro-2-methylpropyl)-8-[(2,6-difluorobenzyl)oxy]-2,6-dimethylimidazo[1,2-a]pyridine-3-carboxamide Formate] yielded an MEC of 0.3 µM.
With CCCC(C)(N)CNC(=O)c1c(C)nc2c(OCc3c(F)ccc(F)c3F)cc(C)cn12 (racemic) [Example 293, rac-N-(2-amino-2-methylpentyl)-2,6-dimethyl-8-[(2,3,6-trifluorobenzyl)oxy]imidazo[1,2-a]pyridine-3-carboxamide] the MEC was 0.03 µM.
With Cc1cc(OCc2c(F)cccc2F)c2nc(C)c(C(=O)NCC(C)(N)Cc3ccc(F)cc3)n2c1 (racemic) [Example 296, rac-N-[2-amino-3-(4-fluorophenyl)-2-methylpropyl]-8-[(2,6-difluorobenzyl)oxy]-2,6-dimethylimidazo[1,2-a]pyridine-3-carboxamide] the MEC was 0.10 µM.
For Cc1cc(OCc2c(F)cccc2F)c2nc(C)c(C(=O)NCC(C)(N)Cc3ccccn3)n2c1 (racemic) [Example 297, rac-N-[2-amino-2-methyl-3-(pyridin-2-yl)propyl]-8-[(2,6-difluorobenzyl)oxy]-2,6-dimethylimidazo[1,2-a]pyridine-3-carboxamide], the MEC was 0.10 µM.
For Cc1cc(OCc2c(F)cccc2F)c2nc(C)c(C(=O)NC3CCNCC3(F)F)n2c1 (racemic) [Example 299, rac-8-[(2,6-difluorobenzyl)oxy]-N-(3,3-difluoropiperidin-4-yl)-2,6-dimethylimidazo[1,2-a]pyridine-3-carboxamide], the MEC was 0.10 µM.

— patent US9624214B2, “Amino-substituted imidazo[1,2-a]pyridinecarboxamides and their use” (BAYER PHARMA AKTIENGESELLSCHAFT, priority 2012, dated 2017)
